For four molecules, Activity and mortality results are on record in ChEMBL document CHEMBL3045594, “Synthesis and evaluation of substituted 5-(3-chloro-2-oxo-4-phenylazetidin-1-ylamino)pyrimidine-2,4,6(1H,3H,5H)-triones against pentylenetetrazole-induced convulsant in mice” (Med Chem Res, 2012).

Data set [1] concerns Mus musculus. In words: Acute toxicity in Mus musculus (mouse) assessed as behavioral changes at 1000 mg/kg, ip. The data set is classed as organism-based. Also noted: dose 1000 mg/kg, route intraperitoneal. Conditions: in vivo.
Data set [2] concerns Mus musculus. In words: Anticonvulsant activity in Mus musculus (mouse) subcutaneous PTZ-induced seizure assessed as reduced glutathione level per mg of protein at 40 mg/kg, ip administered 30 min before PTZ challenge by Ellman method. The data set is classed as functional. A general note: In Ellman's method for cholinesterases, released thiocholine reacts with DTNB.
Data set [3] concerns Mus musculus. Description: Anticonvulsant activity in Mus musculus (mouse) subcutaneous PTZ-induced seizure assessed as reduced glutathione level per mg of protein at 20 mg/kg, ip administered 30 min before PTZ challenge by Ellman method. The data set is classed as functional.
Data set [4] concerns Mus musculus. Description: Anticonvulsant activity in Mus musculus (mouse) subcutaneous PTZ-induced seizure assessed as malondialdehyde level at 20 mg/kg, ip administered 30 min before PTZ challenge by TBARS assay. It is filed as functional.
The test system of data set [5] is Mus musculus. In words: Anticonvulsant activity in Mus musculus (mouse) assessed as protection against subcutaneous PTZ-induced seizure at 20 mg/kg, ip administered 30 min before PTZ challenge. The data set is classed as functional.
Data set [6] concerns Mus musculus. Description: Anticonvulsant activity in Mus musculus (mouse) subcutaneous PTZ-induced seizure assessed as malondialdehyde level at 40 mg/kg, ip administered 30 min before PTZ challenge by TBARS assay. The data set is classed as functional.
Data set [7] concerns Mus musculus. In words: Acute toxicity in Mus musculus (mouse) at 100 to 200 mg/kg, ip. It is filed as organism-based. Also noted: dose 100-200 mg/kg, route intraperitoneal. Conditions: in vivo.
For data set [8], the system named is Mus musculus. Description: Anticonvulsant activity in Mus musculus (mouse) subcutaneous PTZ-induced seizure assessed as carbonyl protein level at 20 mg/kg, ip administered 30 min before PTZ challenge. It is filed as functional.
For data set [9], the system named is Mus musculus. In words: Anticonvulsant activity in Mus musculus (mouse) subcutaneous PTZ-induced seizure assessed as carbonyl protein level at 40 mg/kg, ip administered 30 min before PTZ challenge. It is filed as functional.
Data set [10] in a line: Acute toxicity in Mus musculus (mouse) assessed as mortality at 1000 mg/kg, ip. The data set is classed as organism-based. Also noted: dose 1000 mg/kg, route intraperitoneal. The conditions noted are these: in vivo, read-out: Activity.
Data set [11] concerns Mus musculus. Description: Anticonvulsant activity in Mus musculus (mouse) assessed as protection against subcutaneous PTZ-induced seizure at 40 mg/kg, ip administered 30 min before PTZ challenge. The data set is classed as functional.
The subject of data set [12] is Mus musculus. In words: Anticonvulsant activity in Mus musculus (mouse) subcutaneous PTZ-induced seizure assessed as reduced nitrite level per mg of protein at 20 mg/kg, ip administered 30 min before PTZ challenge by Griess reaction. It is filed as functional. (The Griess reaction detects nitrite, a stable product of nitric oxide.)
The test system of data set [13] is Mus musculus. Description: Anticonvulsant activity in Mus musculus (mouse) subcutaneous PTZ-induced seizure assessed as reduced nitrite level per mg of protein at 40 mg/kg, ip administered 30 min before PTZ challenge by Griess reaction. It is filed as functional.
Data set [14] deals with Mus musculus. In words: Anticonvulsant activity in Mus musculus (mouse) subcutaneous PTZ-induced seizure assessed as carbonyl protein level at 80 mg/kg, ip administered 30 min before PTZ challenge. The data set is classed as functional.
For data set [15], the system named is Mus musculus. Description: Anticonvulsant activity in Mus musculus (mouse) subcutaneous PTZ-induced seizure assessed as malondialdehyde level at 80 mg/kg, ip administered 30 min before PTZ challenge by TBARS assay. It is filed as functional.
In data set [16] the test system is Mus musculus. Description: Anticonvulsant activity in Mus musculus (mouse) subcutaneous PTZ-induced seizure assessed as reduced nitrite level per mg of protein at 80 mg/kg, ip administered 30 min before PTZ challenge by Griess reaction. It is filed as functional.
Data set [17] relates to Mus musculus. Description: Anticonvulsant activity in Mus musculus (mouse) subcutaneous PTZ-induced seizure assessed as reduced glutathione level per mg of protein at 80 mg/kg, ip administered 30 min before PTZ challenge by Ellman method. The data set is classed as functional.
Data set [18] relates to Mus musculus. In words: Anticonvulsant activity in Mus musculus (mouse) assessed as protection against subcutaneous PTZ-induced seizure at 80 mg/kg, ip administered 30 min before PTZ challenge. It is filed as functional.

Regarding `O=C1NC(=O)C(NN2C(=O)C(Cl)C2c2ccccc2)C(=O)N1` (centres undefined), the Activity entry in the data set with Mus musculus [1] was “Toxic”; in the data set with Mus musculus [2], 0.036 µmol; in the data set with Mus musculus [3], 0.031 µmol; in the data set with Mus musculus [4], 48.36 nmol/mg; with Mus musculus [5], 16%; in the data set with Mus musculus [6], 44.04 nmol/mg. Also, the Activity result is “Non-toxic” in the data set on Mus musculus [7]; 30.74 nmol/mg in the data set on Mus musculus [8]; 29.61 nmol/mg in the data set on Mus musculus [9]; 16% in the data set with Mus musculus [11]; 0.46 µmol with Mus musculus [12]; 0.48 µmol in the data set on Mus musculus [13]. In addition, the mortality in data set [10] worked out at 70%.

Regarding `COc1ccc(C2C(Cl)C(=O)N2NC2C(=O)NC(=O)NC2=O)cc1` (centres undefined), the Activity entry with Mus musculus [1] is “Toxic”; with Mus musculus [2] it was 0.047 µmol; with Mus musculus [3], 0.043 µmol; in the data set on Mus musculus [4], 47.11 nmol/mg; in the data set on Mus musculus [5], 33%; with Mus musculus [6], 42.91 nmol/mg. For the same molecule, the Activity result in the data set on Mus musculus [7] is “Non-toxic”; in the data set with Mus musculus [8], 27.53 nmol/mg; in the data set on Mus musculus [9] it was 25.94 nmol/mg; with Mus musculus [11], 66%; with Mus musculus [12], 0.47 µmol; in the data set with Mus musculus [13] it was 0.49 µmol. The mortality in [10] came to 70%.

As to `COc1cc(C2C(Cl)C(=O)N2NC2C(=O)NC(=O)NC2=O)ccc1O` (centres undefined), the Activity result with Mus musculus [1] is “Toxic”; with Mus musculus [2] it was 0.084 µmol; in the data set on Mus musculus [3], 0.081 µmol; in the data set with Mus musculus [4], 35.19 nmol/mg; in the data set with Mus musculus [5], 66%; in the data set on Mus musculus [6], 30.68 nmol/mg. The Activity result in the data set on Mus musculus [7] was “Non-toxic”; with Mus musculus [8], 21.68 nmol/mg; in the data set with Mus musculus [9] it was 20.48 nmol/mg; with Mus musculus [11], 83%; with Mus musculus [12], 0.53 µmol; in the data set on Mus musculus [13], 0.54 µmol. Moreover, the mortality in data set [10] was found to be 70%.

On to `CCCC(CCC)C(=O)[O-].[Na+]` [VALPROATE SODIUM], for which the Activity in the data set on Mus musculus [14] worked out at 19.06 nmol/mg; with Mus musculus [15] it was 28.13 nmol/mg; with Mus musculus [16], 0.54 µmol; with Mus musculus [17], 0.089 µmol; in the data set with Mus musculus [18], 100%.
